Laboratory results from ChEMBL document CHEMBL1275550, “In vitro activity of doripenem, a carbapenem for the treatment of challenging infections caused by gram-negative bacteria, against recent clinical isolates from the United States” (2008).
In brackets after ≈: the same amount, converted by molar mass.

Tests used:
Pseudomonas aeruginosa [1] = assay: Antimicrobial activity against imipenem non-susceptible Pseudomonas aeruginosa assessed as susceptible isolate by broth microdilution method; format: functional
Escherichia coli [2] = assay: Antimicrobial activity against Non-ESBL Escherichia coli by broth microdilution method; format: functional
Enterobacter cloacae [3] = assay: Antimicrobial activity against Enterobacter cloacae with nonderepressed AmpC beta-lactamsae by broth microdilution method; format: functional
Staphylococcus aureus = assay: Antimicrobial activity against methicillin-susceptible Staphylococcus aureus by broth microdilution method; format: functional; conditions: Staphylococcus aureus
Serratia marcescens [4] = assay: Antimicrobial activity against Serratia marcescens by broth microdilution method; format: functional
Escherichia coli [5] = assay: Antimicrobial activity against Escherichia coli assessed as susceptible isolate by broth microdilution method; format: functional
Klebsiella pneumoniae [6] = assay: Antimicrobial activity against Klebsiella pneumoniae assessed as susceptible isolate by broth microdilution method; format: functional
Enterobacteriaceae [7] = assay: Antimicrobial activity against Enterobacteriaceae assessed as susceptible isolate by broth microdilution method; format: functional
Acinetobacter [8] = assay: Antimicrobial activity against imipenem non-susceptible Acinetobacter by broth microdilution method; format: functional
Acinetobacter [9] = assay: Antimicrobial activity against imipenem susceptible Acinetobacter by broth microdilution method; format: functional
Proteus mirabilis [10] = assay: Antimicrobial activity against Proteus mirabilis by broth microdilution method; format: functional
Pseudomonas aeruginosa [11] = assay: Antimicrobial activity against Pseudomonas aeruginosa by broth microdilution method; format: functional
Citrobacter [12] = assay: Antimicrobial activity against Citrobacter by broth microdilution method; format: functional
Citrobacter [13] = assay: Antimicrobial activity against Citrobacter assessed as susceptible isolate by broth microdilution method; format: functional
Pseudomonas aeruginosa [14] = assay: Antimicrobial activity against Pseudomonas aeruginosa assessed as susceptible isolate by broth microdilution method; format: functional
Proteus mirabilis [15] = assay: Antimicrobial activity against Non-ESBL Proteus mirabilis by broth microdilution method; format: functional
Escherichia coli [16] = assay: Antimicrobial activity against Non-ESBL Escherichia coli assessed as susceptible isolate by broth microdilution method; format: functional
Citrobacter [17] = assay: Antimicrobial activity against Citrobacter with nonderepressed AmpC beta-lactamsae by broth microdilution method; format: functional
Klebsiella pneumoniae [18] = assay: Antimicrobial activity against ESBL producing Klebsiella pneumoniae by broth microdilution method; format: functional
Pseudomonas aeruginosa [19] = assay: Antimicrobial activity against imipenem non-susceptible Pseudomonas aeruginosa by broth microdilution method; format: functional
Serratia marcescens [20] = assay: Antimicrobial activity against Serratia marcescens assessed as susceptible isolate by broth microdilution method; format: functional
Enterobacter cloacae [21] = assay: Antimicrobial activity against Enterobacter cloacae with nonderepressed AmpC beta-lactamsae assessed as susceptible isolate by broth microdilution method; format: functional
Acinetobacter [22] = assay: Antimicrobial activity against Acinetobacter assessed as susceptible isolate by broth microdilution method; format: functional
Pseudomonas aeruginosa [23] = assay: Antimicrobial activity against Pseudomonas aeruginosa isolated from non-ICU patient by broth microdilution method; format: functional
Proteus mirabilis [24] = assay: Antimicrobial activity against Non-ESBL Proteus mirabilis assessed as susceptible isolate by broth microdilution method; format: functional
Pseudomonas aeruginosa [25] = assay: Antimicrobial activity against Pseudomonas aeruginosa isolated from ICU patient by broth microdilution method; format: functional
Pseudomonas aeruginosa [26] = assay: Antimicrobial activity against Pseudomonas aeruginosa isolated from non-ICU patient by broth microdilution method
Pseudomonas aeruginosa [27] = assay: Antimicrobial activity against Pseudomonas aeruginosa isolated from ICU patient assessed as susceptible isolate by broth microdilution method
Klebsiella pneumoniae [28] = assay: Antimicrobial activity against Non-ESBL Klebsiella pneumoniae by broth microdilution method; format: functional
Klebsiella pneumoniae [29] = assay: Antimicrobial activity against Non-ESBL Klebsiella pneumoniae assessed as susceptible isolate by broth microdilution method; format: functional
Pseudomonas aeruginosa [30] = assay: Antimicrobial activity against Ceftazidime susceptible Pseudomonas aeruginosa by broth microdilution method; format: functional
Proteus mirabilis [31] = assay: Antimicrobial activity against Proteus mirabilis assessed as susceptible isolate by broth microdilution method; format: functional
Proteus mirabilis [32] = assay: Antimicrobial activity against ESBL producing Proteus mirabilis by broth microdilution method; format: functional
Streptococcus pneumoniae = assay: Antimicrobial activity against penicillin-susceptible Streptococcus pneumoniae by broth microdilution method; format: functional; conditions: Streptococcus pneumoniae
Citrobacter [33] = assay: Antimicrobial activity against Citrobacter with derepressed AmpC beta-lactamsae assessed as susceptible isolate by broth microdilution method; format: functional
Enterobacter cloacae [34] = assay: Antimicrobial activity against Enterobacter cloacae by broth microdilution method; format: functional
Enterobacteriaceae [35] = assay: Antimicrobial activity against ceftazidime-susceptible Enterobacteriaceae assessed as susceptible isolate by broth microdilution method; format: functional
Enterobacteriaceae [36] = assay: Antimicrobial activity against Ceftazidime non-susceptible Enterobacteriaceae assessed as susceptible isolate by broth microdilution method; format: functional
Enterobacteriaceae [37] = assay: Antimicrobial activity against Enterobacteriaceae by broth microdilution method; format: functional
Enterobacteriaceae [38] = assay: Antimicrobial activity against Ceftazidime non-susceptible Enterobacteriaceae by broth microdilution method; format: functional

SMILES: C[C@@H](O)[C@H]1C(=O)N2C(C(=O)O)=C(S[C@@H]3CN[C@H](CNS(N)(=O)=O)C3)[C@H](C)[C@H]12 [DORIPENEM]
- Activity (Pseudomonas aeruginosa [1]): 55.6%
- MIC (Escherichia coli [2]): ≤ 0.015 µg/mL
- MIC50 (Escherichia coli [2]): ≤ 0.015 µg/mL
- MIC90 (Escherichia coli [2]): 0.03 µg/mL (≈ 0.0713 µM)
- MIC50 (Enterobacter cloacae [3]): 0.03 µg/mL (≈ 0.0713 µM)
- MIC90 (Enterobacter cloacae [3]): 0.06 µg/mL (≈ 0.143 µM)
- MIC50 (Staphylococcus aureus; read-out: MIC50): 0.03 µg/mL (≈ 0.0713 µM)
- MIC90 (Staphylococcus aureus; read-out: MIC90): 0.06 µg/mL (≈ 0.143 µM)
- MIC50 (Serratia marcescens [4]): 0.12 µg/mL (≈ 0.285 µM)
- MIC90 (Serratia marcescens [4]): 0.25 µg/mL (≈ 0.595 µM)
- Activity (Escherichia coli [5]): 99.8%
- Activity (Klebsiella pneumoniae [6]): 99.6%
- Activity (Enterobacteriaceae [7]): 99.5%
- MIC50 (Acinetobacter [8]): 32 µg/mL (≈ 76.1 µM)
- MIC90 (Acinetobacter [8]): > 32 µg/mL
- MIC50 (Acinetobacter [9]): 0.25 µg/mL (≈ 0.595 µM)
- MIC90 (Acinetobacter [9]): 2 µg/mL (≈ 4.76 µM)
- MIC50 (Proteus mirabilis [10]): 0.12 µg/mL (≈ 0.285 µM)
- MIC90 (Proteus mirabilis [10]): 0.5 µg/mL (≈ 1.19 µM)
- MIC50 (Pseudomonas aeruginosa [11]): 0.25 µg/mL (≈ 0.595 µM)
- MIC90 (Pseudomonas aeruginosa [11]): 4 µg/mL (≈ 9.51 µM)
- MIC50 (Citrobacter [12]): 0.03 µg/mL (≈ 0.0713 µM)
- MIC90 (Citrobacter [12]): 0.06 µg/mL (≈ 0.143 µM)
- Activity (Citrobacter [13]): 99.8%
- Activity (Pseudomonas aeruginosa [14]): 88.3%
- MIC50 (Proteus mirabilis [15]): 0.12 µg/mL (≈ 0.285 µM)
- MIC90 (Proteus mirabilis [15]): 0.5 µg/mL (≈ 1.19 µM)
- Activity (Escherichia coli [16]): 99.8%
- MIC50 (Citrobacter [17]): 0.03 µg/mL (≈ 0.0713 µM)
- MIC90 (Citrobacter [17]): 0.06 µg/mL (≈ 0.143 µM)
- MIC50 (Klebsiella pneumoniae [18]): 0.03 µg/mL (≈ 0.0713 µM)
- MIC90 (Klebsiella pneumoniae [18]): 0.12 µg/mL (≈ 0.285 µM)
- MIC50 (Pseudomonas aeruginosa [19]): 2 µg/mL (≈ 4.76 µM)
- MIC90 (Pseudomonas aeruginosa [19]): 16 µg/mL (≈ 38 µM)
- Activity (Serratia marcescens [20]): 98.7%
- Activity (Enterobacter cloacae [21]): 99.3%
- Activity (Acinetobacter [22]): 73.4%
- MIC50 (Pseudomonas aeruginosa [23]): 0.25 µg/mL (≈ 0.595 µM)
- MIC90 (Pseudomonas aeruginosa [23]): 4 µg/mL (≈ 9.51 µM)
- Activity (Proteus mirabilis [24]): 98.9%
- MIC50 (Pseudomonas aeruginosa [25]): 0.5 µg/mL (≈ 1.19 µM)
- MIC90 (Pseudomonas aeruginosa [25]): 8 µg/mL (≈ 19 µM)
- Activity (Pseudomonas aeruginosa [26]): 87.9%
- Activity (Pseudomonas aeruginosa [27]): 78.4%
- MIC50 (Klebsiella pneumoniae [28]): 0.03 µg/mL (≈ 0.0713 µM)
- MIC90 (Klebsiella pneumoniae [28]): 0.06 µg/mL (≈ 0.143 µM)
- Activity (Klebsiella pneumoniae [29]): 99.7%
- MIC50 (Pseudomonas aeruginosa [30]): 0.25 µg/mL (≈ 0.595 µM)
- MIC90 (Pseudomonas aeruginosa [30]): 2 µg/mL (≈ 4.76 µM)
- Activity (Proteus mirabilis [31]): 98.9%
- MIC (Proteus mirabilis [32]): 0.06 µg/mL (≈ 0.143 µM)
- MIC50 (Streptococcus pneumoniae): ≤ 0.015 µg/mL
- MIC90 (Streptococcus pneumoniae; read-out: MIC90): ≤ 0.015 µg/mL
- Activity (Citrobacter [33]): 100%
- MIC50 (Enterobacter cloacae [34]): 0.03 µg/mL (≈ 0.0713 µM)
- MIC90 (Enterobacter cloacae [34]): 0.12 µg/mL (≈ 0.285 µM)
- Activity (Enterobacteriaceae [35]): 99.7%
- Activity (Enterobacteriaceae [36]): 96.7%
- MIC50 (Enterobacteriaceae [37]): 0.03 µg/mL (≈ 0.0713 µM)
- MIC90 (Enterobacteriaceae [37]): 0.12 µg/mL (≈ 0.285 µM)
- MIC50 (Enterobacteriaceae [38]): 0.06 µg/mL (≈ 0.143 µM)
- MIC90 (Enterobacteriaceae [38]): 0.25 µg/mL (≈ 0.595 µM)
